Data published in paper PMC2661369, “The Signal Peptide of Staphylococcus aureus Panton Valentine Leukocidin LukS Component Mediates Increased Adhesion to Heparan Sulfates” (PLoS ONE, 2009).
Where no end group is shown, it is not given here.

Key:
[1] = system: Panton Valentine Leukocidin; assay: Quantification of Panton Valentine Leukocidin production by ELISA; type: cell-based, Staphylococcus aureus; details: supernatant after 24 h of culture, mean±SD, in duplicate
Experimental: The level of PVL production in the supernatant after 24 h of staphylococcal culture was determined in duplicate by using an ELISA method as described previously.
The level of PVL production in the supernatant after 24h of culture was determined in duplicate by using an ELISA method as described previously.

[2] = system: ECM components; type: cell-based, Staphylococcus aureus; details: constructs expressed in LUG960 (RN6390 in b7), P-luk-PV promoter; ECM proteins 5 µg/mL, absorbance at 540 nm
[3] = type: physicochemical; details: purified synthetic peptide
Text: To gain insight into the structure and lipotropic properties of the LukS-PV and LukF-PV signal peptides, the solubility and conformation of the corresponding purified synthetic peptides were examined under various stabilizing conditions by using either cosolvents (TFE: water mixtures, SDS) that are very useful tools for probing the propensity of peptides for secondary structure formation ([11], [12], and references therein), or membrane mimetic media including lysolipid (lysophosphatidyl choline, LPC), and detergents (DM, LPC and DPC). […] TFE is known to solubilize hydrophobic peptides as monomers and to stabilize the folding of peptidic sequences with an intrinsic propensity to adopt an α-helical structure. […] Various CD deconvolution methods used indicate a predominant α-helix content ranging from 64 to 77% in SDS and in TFE 50% for LukS-PV signal peptide, but only of about 40% for LukF-PV signal peptide in both media. […] These findings are consistent with the computer prediction that this peptide could easily aggregate (score of 0.8 with Zyggregator [13]). […] Taken together, these analyses indicate that after its processing by the signal peptidase, the LukS-PV signal peptide could readily leave the membrane translocon context and incorporate to the cytosolic or the extracellular aqueous environment.

[4] = system: matrix protein; assay: Effect of heparinase III digestion of ECM proteins on bacterial adhesion; type: cell-based, Staphylococcus aureus; details: increasing concentrations added to coated wells, 1 h at room temperature, before adhesion assay
Experimental: Figure 4 Inhibition of adhesion to collagen IV by heparinase. Isogenic strains of Staphylococcus aureus examined for their binding capacity (Y-axis, absorbance reading at 540 nm) to collagen IV (Sigma) coated on 96-well plates, at concentrations of 5 µg/mL. Heparinase III was added at increasing concentrations (X-axis) to collagen IV (Sigma) before the adhesion assay. Parental (LUG960) indicates the genetic background in which the genetic modifications were made; LukS-PV SP, parental carrying a plasmid encoding the LukS-PV signal peptide. The vertical lines indicate the standard deviations.
To test the effect of digestion of ECM proteins with heparinase, increasing concentrations of heparinase III (Sigma) were added to laminin, elastin and type V, IV, I collagens (Sigma) coated wells, and incubated for 1 h at room temperature. After treatment, the wells were washed with 200 µL PBS 3 times, blocked with 200 µL of 0.2% BSA in PBS at 4°C for 2 h, and used in the adhesion assay.

Molecule: LukS-PV ΔSP: plasmid encoding LukS-PV without signal peptide (MVKKRLLAATLSLGIITPIATSFHESKA)
- PVL levels [1]: 2.39 ± 0.04 µg/mL
- adhesion phenotype of expressing strain [2]: basal level of attachment

Molecule: MVKKRLLAATLSLGIITPIATSFHESKA [LukS-PV signal peptide]
- solubility in water [3]: largely soluble in water

B1: heparinase III: heparinase III (Sigma) (protein, UniProt Q59289 25-659, looked up)
Heparin-sulfate lyase: QSSSITRKDFDHINLEYSGLEKVNKAVAAGNYDDAAKALLAYYREKSKAREPDFSNAEKPADIRQPIDKVTREMADKALVHQFQPHKGYGYFDYGKDINWQMWPVKDNEVRWQLHRVKWWQAMALVYHATGDEKYAREWVYQYSDWARKNPLGLSQDNDKFVWRPLEVSDRVQSLPPTFSLFVNSPAFTPAFLMEFLNSYHQQADYLSTHYAEQGNHRLFEAQRNLFAGVSFPEFKDSPRWRQTGISVLNTEIKKQVYADGMQFELSPIYHVAAIDIFLKAYGSAKRVNLEKEFPQSYVQTVENMIMALISISLPDYNTPMFGDSWITDKNFRMAQFASWARVFPANQAIKYFATDGKQGKAPNFLSKALSNAGFYTFRSGWDKNATVMVLKASPPGEFHAQPDNGTFELFIKGRNFTPDAGVFVYSGDEAIMKLRNWYRQTRIHSTLTLDNQNMVITKARQNKWETGNNLDVLTYTNPSYPNLDHQRSVLFINKKYFLVIDRAIGEATGNLGVHWQLKEDSNPVFDKTKNRVYTTYRDGNNLMIQSLNADRTSLNEEEGKVSYVYNKELKRPAFVFEKPKKNAGTQNFVSIVYPYDGQKAPEISIRENKGNDFEKGKLNLTLTINGKQQLVLVP
- effect of heparinase on bacterial adhesion [4]: the bacterial adhesion decreased in a dose-dependent manner
